Structures are written as SMILES.

The target in the first test is T1, CCR-3 (Homo sapiens, UniProt P51677).
T1 sequence (P51677 1-355): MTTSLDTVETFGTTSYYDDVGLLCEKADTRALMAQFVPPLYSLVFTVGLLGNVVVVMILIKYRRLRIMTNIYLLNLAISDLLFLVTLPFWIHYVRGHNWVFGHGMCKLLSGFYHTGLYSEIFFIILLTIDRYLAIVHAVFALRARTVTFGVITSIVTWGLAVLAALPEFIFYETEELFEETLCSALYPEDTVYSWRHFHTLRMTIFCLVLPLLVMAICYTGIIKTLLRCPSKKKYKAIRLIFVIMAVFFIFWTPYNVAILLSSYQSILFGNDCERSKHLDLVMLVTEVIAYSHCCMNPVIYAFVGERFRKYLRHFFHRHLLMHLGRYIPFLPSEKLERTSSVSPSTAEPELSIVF
Description: Inhibition of eotaxin-induced chemotaxis of CCR-3 transfectant cells (CCR3/U937). The format is cell-based. On the set-up: expressed in transfected cells; host or cells: U937. The following applies: U-937, compound 10 μM, eotaxin 1×10^−9 M, Table 3a. As for the experimental part: The inhibitory activity of the compounds against eotaxin-induced chemotaxis was determined by measuring the inhibition of migration of CCR-3 transfectant cells (CCR3/U937), using a minor modification of the method described by Ohashi, H. et al., Int Arch Allergy Immunol. (1999) 118, 44-50. CCR-3 transfectant cells were grown in PRMI1640 medium containing 10% fetal calf serum (FCS) and Geneticin 418 (0.8 mg/ml). For the assay, CCR-3 transfectant cells were isolated and resuspended at 1×10^7 cells/ml in assay medium (RPMI 1640 medium containing 0.1% bovine serum albumin (BSA)). The chemotaxis assay was performed in a 24-well culture plate. Human eotaxin suspended in assay medium was added to the wells at 1×10^−9 M along with test compounds at various concentrations. For a positive control, eotaxin was added to the wells without a test compound, and for a negative control, neither eotaxin nor a test compound was added to the walls. Chemotaxicell (Kurabo Co., Ltd.) having 5 micrometers pore size were inserted into each well and 100 micro liters of CCR-3 transfectant cells suspension were added to the top chamber. The plates were incubated at 37° C. for 1 hour. After incubation, migrated cells in lower wells were diluted and counted by particle size distribution analyzer (CDP-500, Sysmex Co., Ltd.)
The inhibition is the relative decrease from the control value, in per cent. In the case of `CCN(CCc1ccc(Cl)cc1)CC(O)CNC(=O)Nc1ccccc1` (centres unmarked) [Compound 163, N-phenylcarbamoyl-N′-[2-(4-chlorophenyl)ethyl]-N′-ethyl 2-hydroxy-1,3-diaminopropane], testing at 10 µM gave an inhibition of 96%. Still for that read-out and setting: for `O=C(O)CCCN(CCCNC(=S)Nc1ccc(Cl)cc1)C1CCCc2ccccc21` (centres unmarked) [Compound 164, 4-[[3-(4-chlorophenylthioureido)propyl](1,2,3,4-tetrahydro-1-naphthyl)amino]butanoic acid] the value was 100%. The same measure, in the same setting: to `CC(C)(C)OC(=O)[C@H](CCN(CCCC(=O)O)C1CCCc2ccccc21)NC(=O)Nc1ccc(Br)cc1` (stereo partly drawn) [Compound 165, 4[[(3S)-3-(4-bromophenylureido)-3-(tert-butoxycarbonyl)propyl](1,2,3,4-tetrahydro-1-naphthyl)amino]butanoic acid] belongs 100%.

For the molecule `O=C(O)CCCN(CC(O)CNC(=O)Nc1ccc(Br)cc1)C1CCCc2ccccc21` (centres unmarked) [Compound 167, 4-[[3-(4-bromophenylureido)-2-hydroxypropyl](1,2,3,4-tetrahydro-1-naphthyl)amino]butanoic acid], testing at 10 µM gave an inhibition of 100%. As for `O=C(O)CCCN(CCCNC(=O)Nc1ccc(Br)cc1)C1CCc2ccccc21` (centres unmarked) [Compound 173, 4-[[3-(4-Bromophenylureido)propyl](1-indanyl)amino]butanoic acid], the inhibition at 10 µM was 100%. The molecule `CC(C)NC(=O)[C@H](CCN(CCCC(=O)O)C1CCCc2ccccc21)NC(=O)Nc1ccc(Br)cc1` (stereo partly drawn) [Compound 286, 4-[[(3S)-3-(4-Bromophenylureido)-3-(isopropylcarbamoyl)propyl](1,2,3,4-tetrahydro-1-naphthyl)amino]butanoic acid] displayed an inhibition at 10 µM of 100%. On the same count and under the same terms, to `O=C(O)CCCN(CCCNC(=S)Nc1ccc(Br)cc1)[C@@H]1CCc2ccccc21` [Compound 288, 4-[[3(4-Bromophenylthioureido)propyl][(1R)-1-indanyl]amino]butanoic acid] belongs 100%; to `O=C(O)CCCN(CCCNC(=S)Nc1ccc(Br)cc1)[C@@H]1CCCc2ccccc21` [Compound 290, 4-[[3(4-Bromophenylthioureido)propyl][(1R)-1,2,3,4-tetrahydro-1-naphthyl]amino]butanoic acid], 100%.

Still in this test, the particulars now being: compound 10 μM, eotaxin 1×10^−9 M, Table 3a.
Consider `CCN(CCNC(=O)Nc1ccc([N+](=O)[O-])cc1)CCc1ccc(Cl)cc1` [Compound 4], for which the “Chemotaxis Assay 10 μM (inhibition %)” value was determined as 59%. Still for that read-out and setting: for `CCN(CCCNC(=O)Nc1ccc(Cl)cc1)CCc1ccc(Cl)cc1` [Compound 6] the value was 100%. The same measure, in the same setting: for `CCN(CCCNC(=O)Nc1ccccc1OC)CCc1ccc(Cl)cc1` [Compound 9] the value was 100%; for `COc1ccc(CN(CCCNC(=O)Nc2ccccc2)CCc2ccc(Cl)cc2)cc1` [Compound 18], 58%. Still for that read-out and setting: to `O=C(NCCCN(CCc1ccc(Cl)cc1)Cc1cccnc1)Nc1ccccc1` [Compound 23] belongs 82%; to `O=C(NCCCN(CCc1ccccc1)CCc1ccc(Cl)cc1)Nc1ccccc1` [Compound 25], 88%. In the case of `CN(CCCNC(=O)Nc1ccccc1)CCc1ccc(Cl)cc1` [Compound 27], the “Chemotaxis Assay 10 μM (inhibition %)” value worked out at 97%. Same read-out and setting: for `COC(=O)CCCN(CCCNC(=O)Nc1ccc(Br)cc1)Cc1cccs1` [Compound 39] the value was 78%; for `COC(=O)CCCN(CCCNC(=O)Nc1ccc(Br)cc1)CCc1ccc(OC)c(OC)c1` [Compound 43], 50%. The same measure, in the same setting: for `COC(=O)CCCN(CCNC(=O)Nc1ccc(Br)cc1)C1CCCc2ccccc21` (centres unmarked) [Compound 50] the value was 54%; for `O=C(O)CCCN(CCNC(=O)Nc1ccc(Br)cc1)C1CCCc2ccccc21` (centres unmarked) [Compound 81], 58%; for `CC(C)(C)OC(=O)[C@H](CCN(CCCC(=O)O)C1CCCc2ccccc21)NC(=O)Nc1ccc(Br)cc1` (stereo partly drawn) [Compound 166, 4[[(3S)-3-(4-bromophenylureido)-3-(tert-butoxycarbonyl)propyl](1,2,3,4-tetrahydro-1-naphthyl)amino]butanoic acid], 100%. Same read-out and setting: for `CCCCOC(=O)c1ccc(NC(=O)NCCCN(CCCC(=O)O)C2CCCc3ccccc32)cc1` (centres unmarked) [Compound 237] the value was 100%; for `O=C(O)CCCN(CCCNC(=S)Nc1ccc(Br)cc1)C1CCCc2ccccc21` (centres unmarked) [Compound 246], 100%; for `O=C(O)CCCN(CCCNC(=S)Nc1cccc(Br)c1)C1CCCc2ccccc21` (centres unmarked) [Compound 247], 99%. On to `O=C(O)CCCN(CCCNC(=S)Nc1cccc(Cl)c1)C1CCCc2ccccc21` (centres unmarked) [Compound 248], for which the “Chemotaxis Assay 10 μM (inhibition %)” value turned out to be 100%. For `O=C(O)CCCN(CCCNC(=S)Nc1ccc(I)cc1)C1CCCc2ccccc21` (centres unmarked) [Compound 249], the “Chemotaxis Assay 10 μM (inhibition %)” value came out at 100%. On the same count and under the same terms, for `Cc1ccc(NC(=S)NCCCN(CCCC(=O)O)C2CCCc3ccccc32)cc1` (centres unmarked) [Compound 250] the value was 99%; for `O=C(O)CCCN(CCCNC(=S)Nc1ccc(Cl)c(Cl)c1)C1CCCc2ccccc21` (centres unmarked) [Compound 251], 100%.

Turning to `COC(=O)CCCN(CCCNC(=S)Nc1ccc(Br)cc1)C1CCCc2ccccc21` (centres unmarked) [Compound 252], the “Chemotaxis Assay 10 μM (inhibition %)” value was found to be 100%. With `COC(=O)CCCN(CCCNC(=S)Nc1cccc(Br)c1)C1CCCc2ccccc21` (centres unmarked) [Compound 253], the “Chemotaxis Assay 10 μM (inhibition %)” value amounted to 74%. Same read-out and setting: to `COC(=O)CCCN(CCCNC(=S)Nc1ccc(I)cc1)C1CCCc2ccccc21` (centres unmarked) [Compound 255] belongs 100%; to `COC(=O)CCCN(CCCNC(=S)Nc1ccc(Cl)c(Cl)c1)C1CCCc2ccccc21` (centres unmarked) [Compound 256], 100%. Same read-out and setting: for `O=C(O)CCCN(CCCNC(=S)Nc1ccc(F)cc1)C1CCCc2ccccc21` (centres unmarked) [Compound 257] the value was 100%; for `O=C(O)CCCN(CCCNC(=O)Nc1cc(Cl)nc(Cl)c1)C1CCCc2ccccc21` (centres unmarked) [Compound 279], 96%. The same measure, in the same setting: for `COC(=O)CCCN(CC[C@H](NC(=O)Nc1ccc(Br)cc1)C(=O)OC(C)(C)C)C1CCCc2ccccc21` (some centres unmarked) [Compound 281] the value was 100%; for `COC(=O)CCCN(CC[C@H](NC(=O)Nc1ccc(Br)cc1)C(=O)NC(C)C)C1CCCc2ccccc21` (stereo partly drawn) [Compound 282, methyl 4-[[(3S)-3-(4-bromophenylureido)-3-(isopropylcarbamoyl)propyl](1,2,3,4-tetrahydro-1-naphthyl)amino]butylate], 100%; for `COC(=O)CCCN(CC[C@H](NC(=O)Nc1ccc(Br)cc1)C(=O)NCc1ccccc1)C1CCCc2ccccc21` (stereo partly drawn) [Compound 283, Methyl 4-[[(3S)-3-(4-bromophenylureido)-3-(benzylcarbamoyl)propyl](1,2,3,4-tetrahydro-1-naphthyl)amino]butylate], 100%. Take `CC(C)NC(=O)[C@H](CCN(CCCC(=O)O)C1CCCc2ccccc21)NC(=O)Nc1ccc(Br)cc1` (stereo partly drawn) [Compound 284, 4-[[(3S)-3-(4-Bromophenylureido)-3-(isopropylcarbamoyl)propyl](1,2,3,4-tetrahydro-1-naphthy1)amino]butanoic acid]: the “Chemotaxis Assay 10 μM (inhibition %)” value is listed as 95%. The same measure, in the same setting: to `O=C(O)CCCN(CC[C@H](NC(=O)Nc1ccc(Br)cc1)C(=O)NCc1ccccc1)C1CCCc2ccccc21` (stereo partly drawn) [Compound 287, 4-[[(3S)-3-(4-Bromophenylureido)-3-(benzylcarbamoyl)propyl](1,2,3,4-tetrahydro-1-naphthyl)amino]butanoic acid] belongs 100%. `CC(c1ccccc1)N(CCCNC(=S)Nc1ccc(Br)cc1)CCCC(=O)O` (centres unmarked) [Compound 289]: the “Chemotaxis Assay 10 μM (inhibition %)” value is 100%.

The same test, now with this note: compound 10 μM, eotaxin 1×10^−9 M, Table 3c.
As for `CC[N+](CC)(CCCNC(=S)Nc1ccc(Br)cc1)CCc1ccc(Cl)cc1.[I-]` [Compound 335], the “Chemotaxis Assay 10 μM (inhibition %)” value is listed as 100%. The same measure, in the same setting: to `CC[N+](CC)(CCCNC(=S)Nc1ccccc1)CCc1ccc(Cl)cc1.[I-]` [Compound 336] belongs 100%.

The values above are taken from patent US6875884B1, “Urea derivatives as inhibitors for CCR-3 receptor” (Kirin Beer Kabushiki Kaisha, priority 1999, dated 2005).
